Where no end group is shown, it is not given here.
How the values were obtained:
[1] = tested on: IL-1β; test: IL-1β production by mouse peritoneal macrophages (LPS, ELISA); type: cell-based, C57BL/6 mice; settings: LPS 5 μg/mL, 48 h
Method: In the test, mice are divided into […], namely a blank control group, a lipopolysaccharide (LPS) model group, a dexamethasone group, and mPEG-SC20k-HM-3 groups at different doses (0.56, 1.12, 2.25, 4.50, 9.00 μmol/L).
(1) IL-1 production: mice are intraperitoneally injected with 1 mL of broth medium (containing 6% of starch). After three days, mouse peritoneal macrophages are taken aseptically and washed twice with RPMI 1640 medium, and the cell concentration is adjusted to 2×10^6 cells/mL. The cells are injected into a 24-well culture plate, 1 mL per well, and the cells are incubated in a cell incubator for 3 h, and vibrated once every 30 min to make the cells fully adhere. Then the cells are washed twice with culture solution to remove non-adherent cells, are cultured continuously for 48 h after administration, and are centrifuged at 1000 r for 15 min. The supernatant is collected as a sample with IL-1β to be tested. (2) Determination of IL-1 content: various solutions are prepared; tested samples and standard substances with different concentrations (100 μL/well) are added into the corresponding wells, reaction wells are sealed with plate-sealing adhesive tape, and incubation is performed at 37° C. for 90 min; the plate is washed four times; biotinylated antibody working solution (100 μL/well) is added, the reaction wells are sealed with plate-sealing adhesive tape, and incubation is performed at 37° C. for 60 min; the plate is washed four times; enzyme conjugate working solution (100 μL/well) is added, the reaction wells are sealed with plate-sealing adhesive tape, and incubation is performed at 37° C. for 30 min; the plate is washed four times; chromogenic reagent (100 μL/well) is added, and incubation is performed at 37° C. for 10-20 min in the absence of light; stop solution (100 μL/well) is added, and the OD 450 nm absorbance is measured immediately after uniform mixing (within 5 min).

[2] = tested on: human U937 cells; test: human whole genome array of U937-derived macrophages; type: cell-based; settings: 13.5 μmol/L, 48 h
Method: 1.1.1 U937 cells are cultured in a 6-well plate at 3×10^6 cells/mL per well overnight, and PMA (25 ng/mL) is added on the next day for induction for 48 h. After the cells adhere, cultured supernatant is pipetted away. The cells are treated with mPEG-SC20k-HM-3 (test group) or a medium (negative control group) at 13.5 μmol/L at 37° C. for 48 h.
1.1.2 1×10^6 cells are taken from each of two groups of samples, and the solution has […], and is centrifuged for 5 min. The supernatant is removed. 1 mL of TRIZOL lysis solution is added and mixed uniformly, and the solution stands at room temperature for 5 min.
1.2 DNase I digest the RNA sample to remove any genomic DNA that may be contained therein. […]
1.8.2 Sample adding: An membrane on the PCR Array is opened, 10 μL of mixture is added to each well corresponding to the PCR Array, and a lid is closed to seal the PCR Array; after a real-time quantitative PCR program is set, the PCR Array is placed on the real-time quantitative PCR instrument for PCR reaction, and the prepared PCR Array is placed on ice before the PCR program is set. […]
1.9.3 2^−ΔΔCt values of the test group and the control group are calculated to analyze the difference in expression of the corresponding genes between the test group and the control group. […]

[3] = tested on: AIA rat models; test: adjuvant-induced arthritis (AIA) rat models; type: in vivo, SD rats; settings: for clinical scoring / swelling of left paw / swelling of right paw: 5 times
[4] = tested on: CIA mouse models; test: collagen-induced arthritis (CIA) mouse models; type: in vivo, DBA/1 mice; settings: for clinical scoring / swelling of joints / swelling of paws: 5 times
[5] = high dose 40 mg/kg once the other day
[6] = low dose 10 mg/kg once the other day
[7] = medium dose 20 mg/kg once the other day

## mPEG-SC20k-Ile-Val-Arg-Arg-Ala-Asp-Arg-Ala-Ala-Val-Pro-Gly-Gly-Gly-Gly-Arg-Gly-Asp ({mPEG‑SC 20k}-IVRRADRAAVPGGGGRGD) [polypeptide III, No. 3]
[1]; 0.56 μmoL/L
  IL-1β content: 89.77 ± 7.22 pg/mL
  Inhibition rate: 90.93%
[1]; 1.12 μmoL/L
  IL-1β content: 35.17 ± 17.71 pg/mL
  Inhibition rate: 96.45%
[1]; 2.25 μmoL/L
  IL-1β content: 43.78 ± 10.16 pg/mL
  Inhibition rate: 95.58%
[1]; 4.50 μmoL/L
  IL-1β content: 32.04 ± 6.52 pg/mL
  Inhibition rate: 96.76%
[1]; 9.00 μmoL/L
  IL-1β content: 104.83 ± 2.44 pg/mL
  Inhibition rate: 89.41%
[2]
  number of related factors down-regulated at the mRNA level: 538
  number of related factors up-regulated at the mRNA level: 499
[3]; [5]
  clinical scoring: 5.29 ± 3.90
  swelling of left paw: 4.40 ± 0.91 mm
  swelling of right paw: 1.05 ± 1.31 mm
[3]; [6]
  clinical scoring: 5.43 ± 2.15
  swelling of left paw: 4.40 ± 0.91 mm
  swelling of right paw: 0.76 ± 1.21 mm
[3]; [7]
  clinical scoring: 5.71 ± 2.36
  swelling of left paw: 4.48 ± 1.72 mm
  swelling of right paw: 1.28 ± 1.27 mm
[3]; rat, in vivo
  therapeutic effect on adjuvant-induced arthritis in rats (conclusion): CONCLUSION: polypeptide III has therapeutic effect on adjuvant-induced arthritis, and its effect is higher than that of polypeptide. I.
[4]; [5]
  clinical scoring: 2.00 ± 2.37
  swelling of joints: 0.07 mm
  swelling of paws: 0.14 ± 0.42 mm
[4]; [6]
  clinical scoring: 4.83 ± 2.99
  swelling of joints: 0.23 mm
  swelling of paws: 0.37 ± 0.35 mm
[4]; [7]
  clinical scoring: 6.33 ± 4.23
  swelling of joints: 0.12 mm
  swelling of paws: 0.34 ± 0.42 mm
[4]; mouse, in vivo
  therapeutic effect on collagen-induced arthritis in mice (conclusion): CONCLUSION: polypeptide III has therapeutic effect on collagen-induced arthritis in mice

Reference: patent US20220202912A1, “Polypeptides in Preparation of Drugs for Treatment or Prevention of Rheumatoid Arthritis” (priority 2011, published 2022)
